PMC8570331, “8-Hydroxyquinoline-Amino Acid Hybrids and Their Half-Sandwich Rh and Ru Complexes: Synthesis, Anticancer Activities, Solution Chemistry and Interaction with Biomolecules” (International Journal of Molecular Sciences, 2021)

What was measured:
Colo-205 cells = experiment: Annexin V-FITC / propidium iodide apoptosis induction assay, flow cytometry; type: cell-based, human; settings: 25 μM, 3 h induction
Description: 12H-Benzo[α]phenothiazine (M627) and cisplatin were used as positive controls. Annexin-V assay offers the possibility of detecting early phases of apoptosis. Apoptosis is a morphologically and biochemically distinct form of programmed cell death, which is the preferred mode of action for an anticancer compound. PI was used to distinguish between viable, early apoptotic and necrotic or late apoptotic cells. […] In order to better understand the different behavior of the studied compounds, an in-depth analysis of the various solution (physico-)chemical properties of the ligands and complexes were performed.
The assay was carried out using an Annexin V-FITC Apoptosis Detection Kit from Sigma-Aldrich according to the manufacturer’s instructions. The concentration of the Colo-205 cell suspension was adjusted to approximately 0.5 × 10^6 cells per mL in RPMI 1640 medium, and the cell suspension was distributed in 1 mL aliquots into a 24-well plate and then incubated overnight at 37 °C and 5% CO2. The next day, the medium was removed and replaced by 1 mL RPMI 1640 medium containing the compounds except for the control samples. […] After the incubation period, the samples were washed with PBS, and a fresh medium was added to the samples. The cells were incubated overnight at 37 °C and 5% CO2. The next day, 200 μL 0.25% Trypsin (Trypsin-Versen) was added to the samples until cells appeared detached, followed by the addition of 400 μL of medium supplemented with 10% bovine serum. The cells were collected in Eppendorf tubes and centrifuged at 2000× g for 2 min. The harvested cells were re-suspended in a fresh serum-free RPMI 1640 culture medium. After this step, the apoptosis assay was carried out according to the protocol of the kit. The fluorescence was analyzed immediately using a ParTec CyFlow flow cytometer (Partec GmbH, Münster, Germany).

[1] = target: T1, HSA site I (subdomain IIA) (Homo sapiens, UniProt P02768); experiment: Trp-214 quenching, spectrofluorometry; type: binding; settings: cHSA = 1 µM, pH 7.4 (PBS’), λEX = 295 nm
T1 construct: purchased Sigma-Aldrich A8763
T1 sequence (P02768 25-609): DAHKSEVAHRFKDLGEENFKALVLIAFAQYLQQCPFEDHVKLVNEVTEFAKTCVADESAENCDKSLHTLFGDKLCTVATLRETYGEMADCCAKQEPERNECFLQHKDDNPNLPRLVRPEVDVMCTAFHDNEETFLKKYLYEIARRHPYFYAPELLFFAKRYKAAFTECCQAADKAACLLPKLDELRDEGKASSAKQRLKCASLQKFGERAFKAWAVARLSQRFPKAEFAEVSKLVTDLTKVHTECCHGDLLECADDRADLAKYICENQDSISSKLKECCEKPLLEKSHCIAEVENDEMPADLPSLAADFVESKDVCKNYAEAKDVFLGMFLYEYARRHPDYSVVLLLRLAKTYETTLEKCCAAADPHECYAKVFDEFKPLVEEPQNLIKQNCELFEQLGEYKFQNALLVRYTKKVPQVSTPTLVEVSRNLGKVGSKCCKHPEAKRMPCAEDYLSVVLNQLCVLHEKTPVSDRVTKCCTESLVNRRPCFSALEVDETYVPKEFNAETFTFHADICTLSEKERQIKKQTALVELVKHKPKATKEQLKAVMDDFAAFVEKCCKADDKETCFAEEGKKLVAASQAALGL
Protocol: Tryptophan (Trp-214) quenching and dansylglycine (DG) site marker displacement experiments were performed to calculate binding constants for site I and II, respectively, similar to our previous works.
Fluorescence measurements were carried out on a Fluoromax (Horiba Jobin Yvon, Longjumeau, France) spectrofluorometer using 1 cm × 1 cm quartz cuvette. Samples contained 1 µM HSA or 1 µM DG and 1 µM HSA, or 20 µM (nucleotide) ct-DNA and 5 µM EB, and the complex concentration was varied between 0 and 40 µM or 0 and 300 µM, respectively. Spectroscopic measurements were carried out on individually prepared samples. Excitation wavelengths were 295 nm for Trp-214 quenching, 340 nm for the DG displacement studies and 510 nm for the ct-DNA–EB system. The calculated conditional stability constants for HSA–complex species were obtained using the computer program HypSpec. Calculations always were based on data obtained from at least two independent measurements. Self-absorbance and inner filter effect had to be taken into account, and corrections were made as was described in our former works.

[2] = tested on: Colo-205 human colon adenocarcinoma cell line (doxorubicin-sensitive); experiment: MTT cytotoxicity assay in Colo-205; type: cell-based; settings: 72 h incubation
Protocol: The in vitro cytotoxic activity of the novel water-soluble amino acid derivatives of HQCl and their RhCp* and RuCym complexes was measured by the thiazolyl blue tetrazolium bromide (MTT) assay in two human colon adenocarcinoma cell lines (Colo-205 and Colo-320) and in one non-tumoral human lung fibroblast cell line (MRC-5). The results are given in terms of IC50 values (Table 1). Colo-205 is a drug-sensitive cell line with a normal ABCB1 transporter expression pattern, while Colo-320 is multidrug-resistant and overexpresses the ABCB1 system.
All cell culture reagents were obtained from Sigma-Aldrich and plasticware from Sarstedt (Nümbrecht, Germany). Human colonic Colo-205 doxorubicin-sensitive and Colo-320/MDR-LRP multidrug-resistant adenocarcinoma and MRC-5 human embryonal lung fibroblast cell lines were purchased from LGC Promochem, Teddington, UK. The colonic adenocarcinoma cells were cultured in Roswell Park Memorial Institute (RPMI) 1640 medium supplemented with 10% heat-inactivated fetal bovine serum, 2 mM L-glutamine, 1 mM sodium pyruvate and […]. The MRC-5 cell line was cultured in Eagle’s Minimal Essential Medium (EMEM, Sigma-Aldrich, St. Louis, MO, USA) supplemented with a non-essential amino acid (NEAA) mixture (Sigma-Aldrich, St. Louis, MO, USA) a selection of vitamins, 10% heat-inactivated foetal bovine serum (FBS), 2 mM L-glutamine (Sigma-Aldrich, St. Louis, MO, USA), 1 mM Na-pyruvate (Sigma-Aldrich, St. Louis, MO, USA), nystatin (Sigma-Aldrich, St. Louis, MO, USA) and a penicillin-streptomycin mixture (Sigma-Aldrich, St. Louis, MO, USA) in con-centrations of 100 U/L and 10 mg/L, respectively. The cells were incubated at 37 °C, in a 5% CO2, 95% air atmosphere. All cell lines were detached with Trypsin-Versene (EDTA) solution for 5 min at 37 °C.
The tested compounds were dissolved in 10% (v/v) DMSO/H2O using 4 mM concentration. Doxorubicin (Merck, Darmstadt, Germany) was used as a positive control. Then stock solutions were diluted in complete culture medium, and two-fold serial dilutions of compounds were prepared in 100 μL of the medium, horizontally. The semi-adherent colonic adenocarcinoma cells were treated with Trypsin-Versene (EDTA) solution. They were adjusted to a density of 1 × 10^4 cells in 100 μL of RPMI 1640 or EMEM medium and were added to each well, with the exception of the medium control wells. The final volume of the wells containing compounds and cells was 200 μL. The plates containing Colo-205, Colo-320 or MRC-5 cells were incubated at 37 °C for 72 h; at the end of the incubation period, 20 μL of MTT solution (from a stock solution of 5 mg/mL) were added to each well. After incubation at 37 °C for 4 h, 100 μL of SDS solution (10% in 0.01 M HCI) were added to each well, and the plates were further incubated at 37 °C overnight. […] The IC50 values were obtained from at least 3 independent experiments.

Structure (SMILES)	cell death (Q1, A− PI+), gated events (Colo-205 cells)	early apoptosis (Q3, A+ PI−), gated events (Colo-205 cells)	late apoptosis and necrosis (Q2, A+ PI+), gated events (Colo-205 cells)	Trp-214 Quenching logKQ′, Site I [1]	IC50 [2]	late apoptosis and necrosis (Q2, A+ PI+), gated events (Colo-205 cells; listed as RhCp*‒HQCl-D-hPro)
O=C(O)[C@H]1CCCCN1Cc1cc(Cl)c2cccnc2c1O [HQCl-D-hPro, (R)-5-chloro-7-((homoproline-1-yl)methyl)8-hydroxyquinoline]	27.5%	0.987%	9.1%	–	–	–
Cc1c(C)c(C)[c-](C)c1C.O=C(O)[C@H]1CCC[NH+]1Cc1cc(Cl)c2cccnc2c1[O-].[Cl-].[Cl-].[Rh+3] [RhCp*–HQCl-D-Pro, [RhCp*(HQCl-D-Pro)Cl]Cl]	–	–	–	5.6 ± 0.1	31.5 ± 1.4 µM	–
Cc1c(C)c(C)[c-](C)c1C.O=C(O)[C@H]1CCCC[NH+]1Cc1cc(Cl)c2cccnc2c1[O-].[Cl-].[Cl-].[Rh+3] [RhCp*–HQCl-D-hPro, [RhCp*(HQCl-D-hPro)Cl]Cl]	20.7%	0.838%	7.5%	5.6 ± 0.1	21.5 ± 0.6 µM	7.50%
Cc1ccc(C(C)C)cc1.O=C(O)[C@H]1CCC[NH+]1Cc1cc(Cl)c2cccnc2c1[O-].[Cl-].[Cl-].[Ru+2] [RuCym–HQCl-D-Pro, [RuCym(HQCl-D-Pro)Cl]Cl]	27.9%	0.288%	5.37%	5.5 ± 0.1	> 100 µM	–
Cc1ccc(C(C)C)cc1.O=C(O)[C@H]1CCCC[NH+]1Cc1cc(Cl)c2cccnc2c1[O-].[Cl-].[Cl-].[Ru+2] [RuCym–HQCl-D-hPro, [RuCym(HQCl-D-hPro)Cl]Cl]	–	–	5.4%	5.3 ± 0.1	> 100 µM	–
